Experimental data: the supplement of paper PMC11061612

Columns and labels:
Assay in all cases: combination Emax (second highest fraction inhibited in the dose matrix, 72 h); higher = more inhibition; extreme values may be limits of the assay
[1] = system: AMO-1 (Plasma Cell Myeloma)
Method in brief: (§1)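 Bliss excess equals the observed combination effect minus the expected value EA + EB − EA·EB, where EA and EB are the effects of each agent alone. Combination Emax is the second-highest inhibition within the matrix. Inhibition was scaled from CellTiter-Glo 2.0 luminescence, with 0 set by vehicle wells and 1 by blank wells, after 72 hours of two-drug dosing of cells plated in 1536-well plates.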

[2] = system: BT-549 (Breast Carcinoma)
Method in brief: as §1

[3] = system: Caov-4 (Ovarian Carcinoma)
Method in brief: as §1

[4] = system: EoL-1-cell (Acute Myeloid Leukemia)
Method in brief: as §1

[5] = system: HGC-27 (Gastric Carcinoma)
Method in brief: as §1

[6] = system: KARPAS-299 (T-Cell Non-Hodgkin's Lymphoma)
Method in brief: as §1

[7] = system: KMOE-2 (Acute Myeloid Leukemia)
Method in brief: as §1

[8] = system: MIA-PaCa-2 (Pancreatic Carcinoma)
Method in brief: as §1

[9] = system: MLMA (Other Blood Carcinomas)
Method in brief: as §1

NB69 (Neuroblastoma) = system: NB69 (Neuroblastoma)
Method in brief: as §1

[10] = system: NCI-H1915 (Non-Small Cell Lung Carcinoma)
Method in brief: as §1

[11] = system: NCI-H727 (Other Solid Carcinomas)
Method in brief: as §1

[12] = system: NUGC-3 (Gastric Carcinoma)
Method in brief: as §1

[13] = system: OVCAR-4 (Ovarian Carcinoma)
Method in brief: as §1

[14] = system: PANC-04-03 (Pancreatic Carcinoma)
Method in brief: as §1

PWR-1E (Non-Cancerous) = system: PWR-1E (Non-Cancerous)
Method in brief: as §1

[15] = system: RF-48 (B-Cell Non-Hodgkin's Lymphoma)
Method in brief: as §1

UACC-62 (Melanoma) = system: UACC-62 (Melanoma)
Method in brief: as §1

[16] = system: VA-ES-BJ (Other Solid Carcinomas)
Method in brief: as §1

YH-13 (Glioblastoma) = system: YH-13 (Glioblastoma)
Method in brief: as §1

Row | Compound | combination Emax [1] | combination Emax [2] | combination Emax [3] | combination Emax [4] | combination Emax [5] | combination Emax [6] | combination Emax [7] | combination Emax [8] | combination Emax [9] | combination Emax (NB69 (Neuroblastoma)) | combination Emax [10] | combination Emax [11] | combination Emax [12] | combination Emax [13] | combination Emax [14] | combination Emax (PWR-1E (Non-Cancerous)) | combination Emax [15] | combination Emax (UACC-62 (Melanoma)) | combination Emax [16] | combination Emax (YH-13 (Glioblastoma))
1 | Cc1c2c(nn1C)CSCc1cc(n(C)n1)CSc1cc(c3ccccc3c1)OCCCc1c(C(=O)O)n(C)c3c-2c(Cl)ccc13 [AZD5991] + C=CCn1c(=O)c2cnc(Nc3ccc(N4CCN(C)CC4)cc3)nc2n1-c1cccc(C(C)(C)O)n1 [AZD1775] (first compound max 1 µM, partner max 1 µM) | 1 | 0.811 | 0.928 | 1 | 0.626 | 0.992 | 0.992 | 0.711 | 0.952 | 0.944 | 0.649 | 0.358 | 0.78 | 0.742 | 0.512 | 0.55 | 0.605 | 0.901 | 0.6 | 0.411
2 | Cc1c2c(nn1C)CSCc1cc(n(C)n1)CSc1cc(c3ccccc3c1)OCCCc1c(C(=O)O)n(C)c3c-2c(Cl)ccc13 [AZD5991] + Cn1cnc2c(F)c(Nc3ccc(Br)cc3Cl)c(C(=O)NOCCO)cc21 [Selumetinib] (first compound max 1 µM, 7x7, partner max 3 µM) | 1 | 0.258 | 0.856 | 1 | 0.306 | 0.992 | 1 | 0.623 | 0.393 | 0.982 | 0.568 | 0.65 | 0.355 | 0.376 | 0.432 | 0.21 | 0.21 | 0.998 | 0.184 | 0.178
3 | CCc1c2c(nc3ccc(O)cc13)-c1cc3c(c(=O)n1C2)COC(=O)[C@]3(O)CC [SN-38] + CN(C)CCCOc1ccc(-c2ccc3ncc4c(c3c2)n(C2CCOCC2)c(=O)n4C)cn1 [AZD0156] (first compound max 0.3 µM, 7x7, partner max 1 µM) | 0.9 | 0.423 | 0.954 | 0.995 | 0.885 | 0.924 | 0.945 | 0.945 | 0.877 | 0.995 | 0.609 | 0.297 | 0.984 | 0.187 | 0.462 | 0.946 | 0.801 | 0.891 | 0.875 | 0.509
4 | CCN(CCO)CCCOc1ccc2c(Nc3cc(CC(=O)Nc4cccc(F)c4)[nH]n3)ncnc2c1 [AZD2811] + C=CCn1c(=O)c2cnc(Nc3ccc(N4CCN(C)CC4)cc3)nc2n1-c1cccc(C(C)(C)O)n1 [AZD1775] (first compound max 1 µM, partner max 1 µM) | 0.718 | 0.62 | 0.821 | 1 | 0.896 | 0.911 | 0.89 | 0.727 | 0.981 | 0.885 | 0.522 | 0.311 | 0.539 | 0.472 | 0.445 | 0.87 | 0.522 | 0.391 | 0.356 | 0.423
5 | CC(=O)c1c(C)c2cnc(Nc3ccc(N4CCNCC4)cn3)nc2n(C2CCCC2)c1=O [Palbociclib] + Cc1c2c(nn1C)CSCc1cc(n(C)n1)CSc1cc(c3ccccc3c1)OCCCc1c(C(=O)O)n(C)c3c-2c(Cl)ccc13 [AZD5991] (first compound max 10 µM, 7x7, partner max 1 µM) | 1 | 0.455 | 0.602 | 1 | 0.715 | 0.968 | 0.65 | 0.447 | 0.784 | 0.91 | 0.447 | 0.311 | 0.572 | 0.191 | 0.196 | 0.271 | 0.298 | 0.588 | 0.283 | 0.38
6 | Cc1c2c(nn1C)CSCc1cc(n(C)n1)CSc1cc(c3ccccc3c1)OCCCc1c(C(=O)O)n(C)c3c-2c(Cl)ccc13 [AZD5991] + C1CN(CCC1(C(=O)N[C@@H](CCO)C2=CC=C(C=C2)Cl)N)C3=NC=NC4=C3C=CN4 [Capivasertib] (first compound max 1 µM, 7x7, partner max 3 µM) | 1 | 0.432 | 0.493 | 1 | 0.861 | 1 | 0.793 | 0.244 | 0.407 | 0.794 | 0.18 | 0.374 | 0.171 | 0.18 | 0.186 | 0.226 | 0.353 | 0.934 | 0.227 | 0.265
